Laboratory results from patent US20230192607A1, “TRANSCRIPTIONAL ENHANCED ASSOCIATE DOMAIN (TEAD) TRANSCRIPTION FACTOR INHIBITORS AND USES THEREOF” (Dana-Farber Cancer Institute, Inc., priority 2019, published 2023).
“Also recorded” adds a separate entry of the source.

Key:
[1] = test system: EGFR-mutant NSCLC cell lines; test: Regrowth after drug washout and count of viable dormant cells; assay type: cell-based, human
Experimental: To determine number of dormant cells after treatment, viable cells were manually counted from the Incucyte images. A total of 10-12 wells with 3 images per well was analyzed for each condition.

[2] = test system: YAP activity in PC-9 YAP reporter cells; test: Fluorescent YAP/Hippo pathway reporter assay (Incucyte live-cell imaging); assay type: cell-based, human; settings: for YAP activity (reporter) induced by osimertinib/trametinib: compound added to osimertinib/trametinib
Experimental: YAP activity -induced mCherry expression was quantified using the Incucyte ZOOM live-cell analysis system. The mCherry signal was normalized to well confluency at each time point. For simultaneous detection of YAP activity and apoptosis, the cells were plated as above, and treated in the presence of CellEvent™ Caspase-3/7 Green ReadyProbes™ Reagent (Molecular Probes) as per manufacturer’s instructions. The mCherry signal as well as the green fluorescence signal was quantified every 2 hours using Incucyte ZOOM.

EGFR-mutant NSCLC cells = test: Caspase-3/7 activity monitoring (apoptosis); assay type: cell-based, human; settings: combined with osimertinib/trametinib vs osimertinib/trametinib alone
Experimental: Cells were plated into 96-well plates at 3000 cells/well in 100 µl of growth medium. The next day, drugs were added onto cells in 50 µl containing CellEvent™ Caspase-3/7 Green ReadyProbes™ Reagent (Molecular Probes) as per manufacturer’s instructions (n=5-6 wells / condition). The wells were subsequently scanned every 2 hours using the Incucyte ZOOM live cell analysis system (Essen Bioscience) typically for a total of 72 hours. The acquired fluorescent signal for activated caspase-3/7 was normalized with well confluency at each timepoint (=normalized apoptosis). Peak apoptosis was determined as the highest normalized caspase-3/7 activity value during the assay.

BMF expression = test: QPCR analysis of BMF expression; assay type: cell-based, human; settings: combined with osimertinib/trametinib, 24 hour treatment
Experimental: Cells were plated at 15 × 10^4 cells / cm^2, treated the next day, and RNA samples were extracted at specified timepoints using the RNeasy Mini kit (Qiagen). The RNA concentrations were measured with Nanodrop (Thermo Fisher Scientific) and 1 µg of total RNA was used for cDNA synthesis using the QuantiTect Reverse Transcription Kit (Qiagen). The QPCR reactions were set up in 20 µl using Taqman Gene Expression Master Mix (Applied Biosystems, cat. 4369016), Taqman Gene Expression Assays (Applied Biosystems) as per manufacturer’s instructions, and 2 µl of 1:10 diluted cDNA. The following Taqman Gene Expression Assays were used in the study: CTGF (Hs01026927_ml), ANKDR1 (Hs00173317_ml), BMF (Hs00372937 _m1), SNAI1(Hs00195591_m1), SNAI2 (Hs00161904_m1), TWIST1 (Hs00361186_m1), TWIST2 (Hs02379973_s1), ZEB1 (Hs00232783_m1), ZEB2 (Hs00207691_m1), and ACTB (Hs01060665_g1). The reactions were run in StepOne Plus Real-time PCR System (Applied Biosystems) using default reaction settings. The gene expression levels were normalized to ACTB housekeeping gene expression levels in each sample. For the analysis of BMF expression in vivo, RNA was extracted from 25-30 mg snap-frozen tumor samples using RNeasy Mini kit according to the kit protocol. Reverse transcription and gene expression analyses were performed as above.

CTGF expression = test: QPCR analysis of YAP target gene CTGF expression; assay type: cell-based, human; settings: 24 hour treatment; for CTGF expression in cells overexpressing TEAD1 C359S mutant: PC-9 cells transduced with TEAD1 C359S
[3] = test system: EGFR-mutant NSCLC cell lines; test: Cell viability assay (Cell Titer Glo); assay type: cell-based, human; settings: several EGFR-mutant NSCLC cell lines
TEAD2 protein = TEAD2 protein (Homo sapiens, UniProt Q15562); test: Mass spectrometry analysis of covalent labeling of TEAD2 protein; assay type: binding; settings: 20-fold molar excess, 6 hours at 37° C.
Experimental: TEAD2 protein was incubated with DMSO or a 20-fold molar excess of MYF-01-37 for 6 hours at 37° C. Reactions were then analyzed by LC-MS using a Shimadzu autosampler and LC (Marlborough, MA) coupled to an LTQ ion trap mass spectrometer (ThermoFisher Scientific, San Jose, CA). Protein was injected onto a self packed column (0.5 mm I.D., packed 5 cm POROS 50R2 from Applied Biosystems, Framingham, MA), desalted for 4 minutes with 100% A (A=0.2 M acetic acid in water), eluted with a gradient (0-100% B in 1 minute; A=0.2 M acetic acid in water, B=0.2 M acetic acid in acetonitrile), and introduced to the mass spectrometer by electrospray ionization (spray voltage=4.5 kV). The mass spectrometer acquired full scan MS data (m/z 300-2000). […]
To identify the site of modification, labeled protein was diluted 1:1 with 100 mM ammonium bicarbonate, reduced with 10 mM DTT at 56° C. for 30 minutes, alkylated with 22.5 mM IAA for 30 minutes at room temperature, and then digested with trypsin overnight at 37° C. Tryptic peptides were desalted by C18 (SOLA, ThermoFisher Scientific), dried by vacuum centrifugation, reconstituted in 5% MeCN, 0.1% trifluoroacetic acid, and analyzed by nanoLC-ion mobility MS/MS using a NanoAcquity UPLC system (Waters Corp., Milford, MA) interfaced to a timsTOF Pro mass spectrometer (Bruker, Billerica, MA). […]

TEAD = test: Competition pulldown with biotinylated MYF-01-37; assay type: cell-based; settings: MDA-MB-231 cells pretreated 6 hours with 10, 25 and 50 µM
Experimental: MDA-MB-231 cells were incubated for 6 hours with 10, 25 and 50 µM MYF-01-37, followed by cell lysis. The lysates were subjected to pulldown with 50 µM biotinylated MYF-01-37 overnight, and the amount of TEAD pulled down was analyzed by western blotting.

YAP/TEAD interaction = YAP/TEAD interaction assay (split Gaussia luciferase); assay type: cell-based; settings: HEK 293T cells
Experimental: 293T cells were plated in 24-well plates and transfected with N-GLuc-YAP and C-GLuc-TEAD using TransIT-293 (Mirus Bio). The pCMV-Red Firefly Luc Vector (Life Technologies) was used as an internal control. Cells were treated with indicated concentrations of compounds or vehicle control (DMSO) in duplicates. Luciferase activity was measured by Dual-Luciferase Assay (Promega, Madison, WI) according to the manufacturer’s manual.

[4] = test system: PC-9, HCC827 and HCC4006 cells
Experimental: PC-9, HCC827 and HCC4006 were plated into 6-well plates at 50 000 cells / well, and treated the next day with DMSO, 100 nM osimertinib or with the combination of 100 nM osimertinib and 30 nM trametinib in triplicate. […] After staining, cells were imaged (5 images / well), and stained cells were manually counted from the images.

PC-9 cells = test: Long-term cell growth assay (well confluency, Incucyte); settings: continuous treatment with single-agent osimertinib (100 nM)

TEAD2 protein, sequence (Q15562 whole entry): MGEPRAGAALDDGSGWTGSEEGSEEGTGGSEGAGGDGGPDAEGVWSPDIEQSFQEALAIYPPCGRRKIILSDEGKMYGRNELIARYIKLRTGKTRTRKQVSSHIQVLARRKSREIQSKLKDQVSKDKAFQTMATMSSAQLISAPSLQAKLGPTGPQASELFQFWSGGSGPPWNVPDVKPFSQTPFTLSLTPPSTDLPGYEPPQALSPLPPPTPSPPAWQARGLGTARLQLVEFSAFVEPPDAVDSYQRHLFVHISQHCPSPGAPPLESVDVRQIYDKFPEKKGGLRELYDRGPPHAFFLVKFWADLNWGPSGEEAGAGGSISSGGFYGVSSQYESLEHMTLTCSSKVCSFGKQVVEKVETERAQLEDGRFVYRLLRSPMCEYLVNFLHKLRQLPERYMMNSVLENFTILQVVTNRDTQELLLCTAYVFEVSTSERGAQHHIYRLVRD

Row | Structure (SMILES) | regrowth after one week triple combination followed by two weeks osimertinib/trametinib vs three-week continuous triple combination ([1]; PC-9 cells) | YAP activity (reporter) induced by osimertinib/trametinib [2] | apoptosis (EGFR-mutant NSCLC cells) | BMF expression (BMF expression) | CTGF expression in cells overexpressing TEAD1 C359S mutant (CTGF expression) | cell viability as a single agent [3] | further results
1 | O=c1[nH]c(-c2ccc(C(F)(F)F)cc2)nc2c1CSCC2 [XAV939] | identical potency | completely blocked | robust increase in apoptosis | significantly increased BMF expression | still able to inhibit CTGF expression | – | number of dormant cells at the time of drug washout ([1]; PC-9 cells, 21-day treatment combined with osimertinib/trametinib vs osimertinib/trametinib alone): dramatic decrease in the number of dormant cells; regrowth of cells after drug washout ([1]; three-week treatment combined with osimertinib/trametinib, then washout): significant reduction in regrowth
2 | O=C(CCl)c1ccccc1Nc1cccc(C(F)(F)F)c1 [TED-347] | – | – | – | – | – | significant toxicity | –
3 | C=CC(=O)N1CCC(Nc2cccc(C(F)(F)F)c2C)C1 (centres unmarked) [MYF-01-37] | identical potency | completely suppressed the increased YAP activity | significantly increased apoptosis | robust increase in BMF expression | abrogated | minimal impact on cell viability; also recorded: did not demonstrate single-agent toxicity | dormant cells after treatment ([1]; PC-9 and HCC4006 cells, 10-day treatment in combination with osimertinib/trametinib vs osimertinib/trametinib alone): dramatic decrease in dormant cells; site of covalent modification (TEAD2 protein): targeted cysteine 380; TEAD pull-down by biotinylated MYF-01-37 from whole-cell lysate (TEAD): loss of direct TEAD pull-down; YAP/TEAD interaction (YAP/TEAD interaction): inhibition of direct YAP/TEAD interaction; CTGF expression (CTGF expression; PC-9 cells): reduction in canonical YAP target gene CTGF expression
4 | C=CC(=O)Nc1cc(Nc2nccc(-c3cn(C)c4ccccc34)n2)c(OC)cc1N(C)CCN(C)C [osimertinib] | – | – | – | – | – | – | cells positive for SA-β-Gal activity [4]: significantly smaller proportion; proportion of YAP^high cells ([2]; 10-day treatment): 40%; proportion of cells with absent YAP signal ([2]; 10-day treatment): 60%; time to re-colonization of wells (PC-9 cells): ≤ 8 weeks
